Results: patent US20240307372A1, “COMPOSITIONS AND METHODS TO IMPROVE BENEFIT OF SUBOPTIMALLY ADMINISTERED THERAPEUCTICS FOR THE TREATMENT OF BENIGN AND NEOPLASTIC DISEASES, INFECTIONS, INFLAMMATORY, METABOLIC AND IMMUNOLOGIAL DISEASES” (priority 2023, published 2024)
Like-named read-outs stand apart in the source and are kept apart here.

How the values were obtained:
β-catenin = β-catenin protein level in K562 cell extracts by western blot; type: cell-based, human; details: for β-catenin level in K562 cells: 0.1-40 μM, 24 hours
Method: The second portion was to quantitate the levels of β-catenin protein by western blot. TET's ability in an in vitro assay to reduce β-catenin expression was tested in human erythroleukemic (K562) cells. Testing was conducted by Alamo Laboratories, San Antonia, TX.
(§1) Briefly, the method to quantitate β-catenin protein by western blot was as follows: Extracts of K562 cells (untreated and treated with various concentrations of tetrandrine) were concentrated to 0.4 ml using Centricon-3 column to yield a protein concentration of approximately 2 mg/ml. Samples were mixed with 5× Laemmli buffer and loaded on 8-16% Tris-Glycine gradient gel, then polyacrylamide gel electrophoresis (PAGE) was run at 85 volts for 100 minutes at 6° C. and proteins were transferred on PVDF membrane at 70 Volts for 85 minutes at 8° C. Membrane was blocked with 5% milk in Tris-buffered Saline containing 0.1% TW-20 (TBST). Membrane was incubated with primary antibody for 18 hours at 4° C. followed by 3 washes, 5 minutes each, with TBST and incubated with secondary antibody in TBST for 2 hours at 25° C. The membrane was washed again with TBST as described above and incubated with ECL-2 substrate for 5 minutes and scanned on Kodak Image Station. After scan, blot was stripped of primary and secondary antibodies and re-probed with anti-beta Actin antibody as described above. Protein bands in WB images were quantitated using Molecular Imaging software pack MIS-4.0 software and tabulated in Excel spreadsheet.

beta-Actin = beta-Actin level in K562 cell extracts by western blot; type: cell-based, human; details: K562 cells treated with up to 40 uM
Method: as §1

calmodulin (CaM) = calmodulin (CaM) (Homo sapiens, UniProt P0DP23); details: cited from earlier work
[1] = system: colorectal (CT-26) xenografts; details: colorectal (CT-26) mouse xenografts; cited from earlier work
[2] = system: CML colonies (secondary clonal growth); assay: Replating assay, secondary clonal growth of CML colonies; type: cell-based, human; details: colonies from original cultures with ES-3000 @10 μM
[3] = IV, cited from earlier work
[4] = cited from earlier work
leukemia cell lines = details: cited from earlier work
[5] = system: human chronic myeloid leukemia (CML) progenitors; assay: Colony forming cell (CFC) assay on CML patient bone marrow cells, methylcellulose-based medium; details: for BFU-E colonies / CFU-E colonies / Total Erythroid colonies: no Epo
K562 cells = assay: K562 cell viability after TET exposure (trypan blue); type: cell-based, human; details: 24 hours
Method: Briefly, the method for the first portion of the study was as follows: K562 cells were grown and maintained in medium (RPMI, 10% FBS, Pen Strep and […]). Cells were then exposed to TET, 0, 0.1, 1, 5, 10, 20 & 40 μM for 24 hours at 37° C. Following drug exposure, cell viability was checked using trypan blue, followed by cell lysis. Supernatants were collected and test for protein concentration using a Pierce BCA kit. The protein assay tubes were read on a Spectramax at 562 nm and Softmax@ software was used for protein concentration analysis.
The effect of TET treatment on K562 percent cell viability is depicted in Table 2 and is graphically illustrated in FIG. 2.

hERG = hERG (Homo sapiens, UniProt Q12809); assay: hERG inhibition, IonWorks HT electrophysiology in CHO cells stably transfected with hERG; details: for IC50: read-out: hERG IC50, CHO cells stably transfected with hERG, 300 sec contact
Method: The purpose of this study was to evaluate the potential of a test article to inhibit hERG. The experiments are performed on an Ion Works™ HT instrument (Molecular Devices Corporation), which automatically performs electrophysiology measurements in […] single cells simultaneously in aspecialized 384-well plate (PatchPlate). All cell suspensions, buffers and test compound solutions are at room temperature during the experiment. The cells used are Chinese hamster ovary (CHO) cells stably transfected with hERG (cell-line obtained from Cytomyx, UK). A single-cell suspension is prepared in extracellular solution (Dulbecco's phosphate buffered saline with calcium and magnesium pH 7-7.2) and aliquots added automatically to each well of a PatchPlate™. The cells are then positioned over a small hole at the bottom of each well by applying a vacuum beneath the plate to form an electrical seal. The vacuum is applied through a single compartment common to all wells which is filled with intracellular solution (buffered to pH 7.2 with HEPES). The resistance of cach seal is measured via a common ground-electrode in the intracellular compartment and individual electrodes placed into each of the upper wells. Electrical access to the cell is then achieved by circulating a perforating agent, amphotericin, underneath the PatchPlate and then measuring the pre-compound hERG current. An electrode is positioned in the extracellular compartment and a holding potential of −80 mV applied for 15 sec. The hERG channels are then activated by applying a depolarizing step to +40 mV for 5 sec and then clamped at −50 mV for 4 sec to elicit the hERG tail current, before returning to −80 mV for 0.3 sec. Test compound is then added automatically to the upper wells of the PatchPlateTM from a 96-well microtitre plate containing a range of concentrations of each compound. […] The test compound is left in contact with the cells for 300 sec before recording currents using the same voltage-step protocol as in the pre-compound scan. […] Each concentration is tested in 4 replicate wells on the PatchPlate™. […] Post-compound currents are then expressed as a percentage of pre-compound currents and plotted against concentration for each compound (FIG. 8). Testing was conducted by Cyprotex US, LLC, Watertown, MA.

Chain of hERG (Q12809 whole entry): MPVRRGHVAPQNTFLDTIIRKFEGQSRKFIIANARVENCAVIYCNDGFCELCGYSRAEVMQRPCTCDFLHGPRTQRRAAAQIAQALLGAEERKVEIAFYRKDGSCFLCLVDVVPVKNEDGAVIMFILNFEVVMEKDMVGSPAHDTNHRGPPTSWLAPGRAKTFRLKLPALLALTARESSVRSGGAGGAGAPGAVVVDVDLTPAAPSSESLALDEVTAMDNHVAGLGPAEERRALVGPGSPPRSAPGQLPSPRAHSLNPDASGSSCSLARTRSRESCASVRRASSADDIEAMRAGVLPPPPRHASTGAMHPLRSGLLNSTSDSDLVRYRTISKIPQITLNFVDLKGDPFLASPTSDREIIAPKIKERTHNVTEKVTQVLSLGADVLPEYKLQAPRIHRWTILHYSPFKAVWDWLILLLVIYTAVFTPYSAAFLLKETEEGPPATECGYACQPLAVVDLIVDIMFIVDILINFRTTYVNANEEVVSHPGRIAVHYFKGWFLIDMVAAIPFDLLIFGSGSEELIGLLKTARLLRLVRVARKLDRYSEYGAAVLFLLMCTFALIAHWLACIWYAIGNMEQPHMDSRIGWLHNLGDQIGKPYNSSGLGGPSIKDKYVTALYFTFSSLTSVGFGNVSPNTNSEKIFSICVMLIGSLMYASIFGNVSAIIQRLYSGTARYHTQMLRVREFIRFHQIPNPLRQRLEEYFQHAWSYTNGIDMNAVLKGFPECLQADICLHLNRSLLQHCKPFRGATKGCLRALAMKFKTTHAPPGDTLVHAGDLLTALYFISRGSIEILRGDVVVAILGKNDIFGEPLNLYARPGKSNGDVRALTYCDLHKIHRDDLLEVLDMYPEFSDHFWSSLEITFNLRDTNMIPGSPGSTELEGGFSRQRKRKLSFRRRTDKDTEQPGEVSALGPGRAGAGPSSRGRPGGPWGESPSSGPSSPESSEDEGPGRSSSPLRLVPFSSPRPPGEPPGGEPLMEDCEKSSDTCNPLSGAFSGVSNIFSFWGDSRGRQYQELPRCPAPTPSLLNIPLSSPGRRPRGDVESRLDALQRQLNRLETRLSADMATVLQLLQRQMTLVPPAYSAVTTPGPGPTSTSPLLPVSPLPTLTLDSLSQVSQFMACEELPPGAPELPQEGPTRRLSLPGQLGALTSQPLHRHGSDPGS

Substance: 6,6′,7,12-tetramethoxy-2,2′-dimethyl-berbaman [ES-3000]
- β-catenin level in K562 cells (β-catenin; listed as TET): reduced β-catenin
- β-catenin level in K562 cells (β-catenin; listed as Tetrandrine): lowers the β-catenin level in K562 cells in a dose dependent manner
- β-catenin band in western blot (β-catenin; K562 cells treated with 0 to 10 uM): A clear β-catenin band was evident
- β-catenin band in western blot (β-catenin; K562 cells treated with 20 and 40 uM): a convincing β-catenin band was absent
- beta-catenin level (quantitation of protein bands) (β-catenin; K562 cells treated with >10 uM): significantly less
- beta-Actin level (quantitation of protein bands) (beta-Actin): not affected significantly
- binding to calmodulin (CaM) (calmodulin (CaM)): bind competitively to calmodulin (CaM)
- tumor growth [1]: reduced tumor growth by inducing apoptosis
- average CFC per well (secondary growth) [2]: three
- wells supported secondary growth with one or more colony [2]: 54.2%
- recommended dose for a Phase II study ([3]; daily ×5, repeated every 2 weeks): 200 mg/m2
- recommended dose for a Phase II study ([3]; single dose repeated weekly): 300 mg/m2
- protein binding [4]: highly protein bound
- 50% growth inhibition (Log GI50) (leukemia cell lines; NCI 60 cell line screen): −5.0 to −6.6
- GI50 (leukemia cell lines; read-out: 50% growth inhibition (GI50), NCI 60 cell line screen): 0.25 to 10 µM
- CFU-GM colonies ([5]; 0.1 μM): 55 ± 5
- Total CFC ([5]; 0.1 μM): 88 ± 8
- BFU-E colonies ([5]; 0.1 μM): 22 ± 4
- CFU-E colonies ([5]; 0.1 μM): 11 ± 1
- Total Erythroid colonies ([5]; 0.1 μM): 33 ± 3
- CFU-GM colonies ([5]; 1 μM): 54 ± 2
- Total CFC ([5]; 1 μM): 86 ± 4
- BFU-E colonies ([5]; 1 μM): 22 ± 4
- CFU-E colonies ([5]; 1 μM): 10 ± 2
- Total Erythroid colonies ([5]; 1 μM): 33 ± 3
- CFU-GM colonies ([5]; 3 μM): 52 ± 5
- Total CFC ([5]; 3 μM): 75 ± 6
- BFU-E colonies ([5]; 3 μM): 14 ± 3
- CFU-E colonies ([5]; 3 μM): 9 ± 2
- Total Erythroid colonies ([5]; 3 μM): 23 ± 2
- IC50 ([5]; read-out: Erythroid IC50 ± 95% CI, Human progenitors): 3.12 ± 0.01 µM
- % Viability (K562 cells; 0.1 μM): 82.4%
- % Viability (K562 cells; 1 μM): 79.2%
- % Viability (K562 cells; 5 μM): 81.8%
- % Viability (K562 cells; 10 μM): 79.7%
- % Viability (K562 cells; 20 μM): 76.5%
- % Viability (K562 cells; 40 μM): 56.4%
- IC50 (hERG): 5.15 µM
- IC50 (hERG; listed as TET): 5.2 µM
- plasma level above which QT prolongation might be expected (hERG; subjects): above 249 ng/mL
- safety margin for cardiac conduction-related toxicity (hERG IC50 versus human Cmax) (hERG; utilizing Cmax from previous human clinical experience): 13 fold
